Data on 2 molecules can be found in US20120041305A1, “LIGHT-EMITTING DYE FOR INTRAOPERATIVE IMAGING OR SENTINEL LYMPH NODE BIOPSY” (THE UNIVERSITY OF UTAH RESEARCH FOUNDATION, priority 2009, published 2012).

Data set [1] in a line: Porcine model of lymphatic mapping (intradermal limb injection). Type of data set: in vivo, swine.
The conditions of data set [2]: 1,047 patients, intradermal, 10% fluorescein mixed 1:1 with 1% lidocaine hydrochloride; cited from earlier work.
Data set [3] is described as follows: Human melanoma clinical trial, intraoperative sentinel lymph node fluorescence. Format: in vivo. The settings on record: 0.001%, 1 ml intradermally in 4 locations, 3 out of 5 patients. The protocol:
Patients with cutaneous malignant melanoma with a Breslow thickness of 0.75 mm or greater, or Clark level IV/V involvement, or ulceration were enrolled in the trial. All patients underwent preoperative lymphoscintigraphy with 99m-Technetium labeled sulfur colloid up to 24 hours before the operation. The normally used intraoperative vital blue dye was replaced by fluorescein. The initial starting dose of fluorescein was 0.001% and 1 ml was injected intradermally intraoperatively in 4 locations around the melanoma biopsy site. At this does, sentinel lymph node fluorescence was identified in 3 out of 5 patients (60%). […] The 0.01% dose was used in the subsequent phase II study.

The conditions of data set [4]: 120 colon cancer patients, intramural bowel injection; cited from earlier work.
For data set [5] the following is noted: cited from earlier work.
For data set [6] the following is noted: vital blue dye alone, intradermal; cited from earlier work.

Read-outs that look alike come from different tables or passages of the source.

As for `O=C1OC2(c3ccc(O)cc3Oc3cc(O)ccc32)c2ccccc21` [fluorescein, Fluorescein], the “forelimb injections developing visible fluorescence leading to a SLN” value in data set [1] (swine forelimb, one of seven injections) was 14%. Moreover, the “hindlimb injections showing lymphatic trunks under the skin leading to the SLN” value in data set [1] (swine hindlimb, nine of ten injections) worked out at 90%. Besides, the figures for the adverse reactions entry in data set [2] and in data set [4] were “without adverse reactions” and “none of the 120 patients suffered any adverse reactions”, respectively. Besides, in data set [3], the “patients with sentinel lymph node fluorescence identified” value turned out to be 60%.

Turning to `CCN(CC)c1ccc(C(=C2C=CC(=[N+](CC)CC)C=C2)c2cc(S(=O)(=O)[O-])ccc2S(=O)(=O)[O-])cc1.[Na+]` [Lymphazurin, isosulfan blue], the “forelimb injections leading to a SLN” value in data set [1] (swine forelimb, injected four times) is “failed to lead to a SLN”. The “patients with anaphylactoid reaction or life threatening anaphylactic shock” value in data set [5] (1% dye, lymphatic mapping and SLNB) is listed as 0.1-2%. Also, in data set [5] (human, in vivo), the “chance of a life-threatening anaphylactic event caused by injection” value is listed as 1%. Moreover, the “cases in which the SLN can be identified” value in data set [6] is given as “approximately 87%”.
